Data set [1] can be described thus: Comparative water solubility of 1:1 and 1:1.3 levulinate salts. Type of data set: physicochemical.
Data set [2] can be described thus: Comparative water stability of 1:1 and 1:1.3 levulinate salts. The format is physicochemical.
Data set [3] is described as follows: Comparative quantitative solubility study in water and methylene chloride. The note with it: 25° C.; for Solubility in Methylene Chloride: measure of lipid solubility. Type of data set: physicochemical. The text has this:
In comparison to the hydrochloride salt of BL-5111, the 1:1.3 levulinate salt form has substantially greater water and lipid solubility. TABLE 3 below sets forth results of a comparative quantitative study of the BL-5111 hydrochloride and the 1:1.3 levulinate salt in water and methylene chloride. Solubility in methylene chloride is a measure of lipid solubility which plays an important role in any distribution in the body.

Data set [4] can be described thus: Plasma levels in dogs after oral administration by gavage. The format is in vivo. The conditions noted are these: equivalent to 10 mg. BL-5111 free base, fasted beagle dogs. The method, then: With respect to oral administration, the BL-5111 levulinate provides improved absorption compared to the hydrochloride salt as illustrated by enhanced plasma levels in dogs. Thus, BL-5111 levulinate (equivalent to 10 mg. of BL-5111 free base) was orally administered by gavage as a solution in 5 ml. of water followed by 20 ml. of water to beagle dogs which had been fasted 12 to 15 hours. The BL-5111 hydrochloride (equivalent to 10 mg. of the BL-5111 free base) was likewise administered with the exception that a suspension was employed due to tendency of the hydrochloride to dissolve at a rate appreciably slower than the levulinate. […] Moreover, maximum plasma level following administration was approximately three-fold greater for the levulinate than the hydrochloride while the extent of absorption of BL-5111 levulinate (determined by comparison of the area under plasma concentration-time curves taken over a period of 24 hr.) was more than double that of BL-5111 hydrochloride.

Data set [5] is described as follows: In situ solubility of acid addition salts of BL-5111 in water. The format is physicochemical. The note with it: for Solubility 50° C. / Solubility 25° C.: 10 mg. BL-5111 free base in 0.3 ml. water with excess of the acid; for Solubility 25° C.: room temperature (about 25° C.).

In brackets after ≈: the same amount, converted by molar mass. Where a name gives a salt, the structure may show the parent alone.

For the molecule `COc1cc2nc(N3CCN(C(=O)c4nnc(SC)o4)CC3)nc(N)c2cc1OC` [1:1, levulinic acid salt of 4-amino-6,7-dimethoxy-2-[4-(5-methylthio-1,3,4-oxadiazole-2-carbonyl)-piperazin-1-yl]quinazoline], the Solubility result is on record as “soluble” in data set [1] (2.5 mg./ml., at 50° C.); “soluble” in data set [1] (10 mg./ml., at 50° C.); “insoluble” in data set [1] (50 mg./ml., at 80° C.). Moreover, the “Solubility and stability relative to the 1:1.3 levulinate” value in data set [2] (water, Table 2 data) was “relatively less soluble and stable”.

Turning to `COc1cc2nc(N3CCN(C(=O)c4nnc(SC)o4)CC3)nc(N)c2cc1OC` [1:1.3 levulinate, 4-AMINO-6,7-DIMETHOXY-2-[4-(5-METHYLTHIO-1,3,4-OXADIAZOLE-2-CARBONYL)-PIPERAZIN-1-YL]QUINAZOLINE LEVULINATE], in data set [1] (10 mg./ml., room temperature), the Solubility result is given as “soluble”. Further, the Solubility entry in data set [1] (50 mg./ml., at 50° C.) is reported as “soluble”. In addition, the “Stability of aqueous solution” value in data set [2] (room temperature) was “stable”. In addition, the Stability entry in data set [2] (water, 10 mg./ml., room temperature, listed as 1:1.3) is on record as “stable”. Besides, the Stability entry in data set [2] (water, 50 mg./ml., room temperature) is given as “stable”. Further, in data set [3], the “Solubility in Water” value came out at 38.0 mg/mL (≈ 88.1 mM); the “Water solubility, times that of the hydrochloride salt” value is on record as “about 8.6 times”; the “Solubility in Methylene Chloride” value was over 100 mg/mL. The “Maximum plasma level relative to the hydrochloride” value in data set [4] is reported as “approximately three-fold”. Further, the “Extent of absorption (area under plasma concentration-time curves) relative to BL-5111 hydrochloride” value in data set [4] (over 24 hr.) is “more than double”.

For `COc1cc2nc(N3CCN(C(=O)c4nnc(SC)o4)CC3)nc(N)c2cc1OC` [acetic], in data set [5], the “Solubility 50° C.” value was “+ (soluble (+))” and the “Solubility 25° C.” value is “+ (soluble (+))”. The Solubility in data set [5] (room temperature, 10 mg./0.3 ml. water, read-out: Solubility sufficient to provide a solution) is at least 33 mg/mL.

Turning to `COc1cc2nc(N3CCN(C(=O)c4nnc(SC)o4)CC3)nc(N)c2cc1OC` [formic], in data set [5], the “Solubility 50° C.” value is listed as “+ (soluble (+))” and the “Solubility 25° C.” value is recorded as “± (questionable (±))”.

Consider `COc1cc2nc(N3CCN(C(=O)c4nnc(SC)o4)CC3)nc(N)c2cc1OC` [fumaric], for which, in data set [5], the “Solubility 50° C.” value is recorded as “- (insoluble (-))” and the “Solubility 25° C.” value was “- (insoluble (-))”.

Turning to `COc1cc2nc(N3CCN(C(=O)c4nnc(SC)o4)CC3)nc(N)c2cc1OC` [hydrobromic], in data set [5], the “Solubility 50° C.” value is given as “- (insoluble (-))” and the “Solubility 25° C.” value is on record as “- (insoluble (-))”.

Turning to `COc1cc2nc(N3CCN(C(=O)c4nnc(SC)o4)CC3)nc(N)c2cc1OC` [hydrochloride], in data set [5] (listed as hydrochloric), the “Solubility 50° C.” value is on record as “- (insoluble (-))” and the “Solubility 25° C.” value was “- (insoluble (-))”. For the same molecule, in data set [3], the “Solubility in Water” value was 4.42 mg/mL and the “Solubility in Methylene Chloride” value was under 1 mg/mL. Also, in data set [4] (levulinate as solution, hydrochloride as suspension, listed as BL-5111 hydrochloride), the “Time at which maximum plasma levels reached” value worked out at 2 h.

As to `COc1cc2nc(N3CCN(C(=O)c4nnc(SC)o4)CC3)nc(N)c2cc1OC` [isethionic], in data set [5], the “Solubility 50° C.” value was “- (insoluble (-))” and the “Solubility 25° C.” value was “- (insoluble (-))”.

Consider `COc1cc2nc(N3CCN(C(=O)c4nnc(SC)o4)CC3)nc(N)c2cc1OC` [methanesulfonic], for which, in data set [5], the “Solubility 50° C.” value is “- (insoluble (-))” and the “Solubility 25° C.” value was “- (insoluble (-))”.

Take `COc1cc2nc(N3CCN(C(=O)c4nnc(SC)o4)CC3)nc(N)c2cc1OC` [nitric]: in data set [5], the “Solubility 50° C.” value is listed as “- (insoluble (-))” and the “Solubility 25° C.” value is on record as “- (insoluble (-))”.

With `COc1cc2nc(N3CCN(C(=O)c4nnc(SC)o4)CC3)nc(N)c2cc1OC` [phosphoric], in data set [5], the “Solubility 50° C.” value is “- (insoluble (-))” and the “Solubility 25° C.” value is reported as “- (insoluble (-))”.

In the case of `COc1cc2nc(N3CCN(C(=O)c4nnc(SC)o4)CC3)nc(N)c2cc1OC` [succinic], in data set [5], the “Solubility 50° C.” value was “+ (soluble (+))” and the “Solubility 25° C.” value is given as “- (insoluble (-))”.

On to `COc1cc2nc(N3CCN(C(=O)c4nnc(SC)o4)CC3)nc(N)c2cc1OC` [sulfuric], for which, in data set [5], the “Solubility 50° C.” value is given as “- (insoluble (-))” and the “Solubility 25° C.” value is reported as “- (insoluble (-))”.

The record behind these values is patent US4161595A, “Levulinic acid salt” (Bristol-Myers Company, priority 1978, dated 1979).
